This note sets out measurements from patent US6908926B1, “Substituted imidazoles, their preparation and use” (Novo Nordisk A/S, priority 1999, dated 2005).

For orientation: melting point means the temperature of the solid-liquid transition.

The compound `COc1cccc(COC(=O)N2CCc3[nH]cnc3C2)c1.O=C(O)C(=O)O` [Example 19, 4,5,6,7-Tetrahydroimidazo[4,5-c]pyridine-5-carboxylic Acid 3-methoxybenzyl Ester Oxalate] gave a melting point of 163 to 165 °C. The same measure for `Cc1cccc(COC(=O)N2CCc3[nH]cnc3C2)c1.O=C(O)C(=O)O` [Example 21, 4,5,6,7-Tetrahydroimidazo[4,5-c]pyridine-5-carboxylic Acid 3-methylbenzyl Ester Oxalate]: 169 to 171 °C; for `Cc1cccc(CCOC(=O)N2CCc3[nH]cnc3C2)c1.O=C(O)C(=O)O` [Example 24, 4,5,6,7-Tetrahydroimidazo[4,5-c]pyridine-5-carboxylic Acid 2-(3-methylphenyl)ethyl Ester Oxalate]: 155 to 157 °C; for `Cc1ccc(COC(=O)N2CCc3[nH]cnc3C2)c(C)c1.O=C(O)C(=O)O` [Example 28, 4,5,6,7-Tetrahydroimidazo[4,5-c]pyridine-5-carboxylic Acid 2,4-dimethylbenzyl Ester Oxalate]: 176 to 178 °C. Take `CC(C)c1ccc(COC(=O)N2CCc3nc[nH]c3C2)cc1.O=C(O)C(=O)O` [Example 31, 4,5,6,7-Tetrahydroimidazo[4,5-c]pyridine-5-carboxylic Acid 4-isopropylbenzyl Ester Oxalate]: the melting point was in the range of 166 to 168 °C. The same measure for `CCc1ccc(COC(=O)N2CCc3nc[nH]c3C2)cc1.O=C(O)C(=O)O` [Example 34, 4,5,6,7-Tetrahydroimidazo[4,5-c]pyridine-5-carboxylic Acid 4-ethylbenzyl Ester Oxalate]: 171 to 173 °C.

The compound `O=C(O)C(=O)O.O=C(OCCc1cccs1)N1CCc2nc[nH]c2C1` [Example 36, 4,5,6,7-Tetrahydroimidazo[4,5-c]pyridine-5-carboxylic Acid 2-thiophen-2-ylethyl Ester Oxalate] displayed a melting point of 173 to 175 °C. As for `O=C(O)C(=O)O.O=C(OCCc1ccsc1)N1CCc2nc[nH]c2C1` [Example 37, 4,5,6,7-Tetrahydroimidazo[4,5-c]pyridine-5-carboxylic Acid 2-thiophen-3-ylethyl Ester Oxalate], the figure is 193 to 194 °C. The same measure for `O=C(O)C(=O)O.O=C(OCCC1CCCCC1)N1CCc2nc[nH]c2C1` [Example 40, 4,5,6,7-Tetrahydroimidazo[4,5-c]pyridine-5-carboxylic Acid 2-cyclohexylethyl Ester Oxalate]: 174 to 176 °C; for `O=C(O)C(=O)O.O=C(OCC1CCCCC1)N1CCc2nc[nH]c2C1` [Example 41, 4,5,6,7-Tetrahydroimidazo[4,5-c]pyridine-5-carboxylic Acid Cyclohexylmethyl Ester Oxalate]: 176 to 178 °C; for `O=C(O)C(=O)O.O=C(OCc1ccccc1Cl)N1CCc2nc[nH]c2C1` [Example 42, 4,5,6,7-Tetrahydroimidazo[4,5-c]pyridine-5-carboxylic Acid 2-chlorobenzyl Ester Oxalate]: 173 to 175 °C.
